According to patent US7273848B2, “Apolipoprotein A-I agonists and their use to treat dyslipidemic disorders” (priority 1997, dated 2007):
Read-outs that look alike come from different tables or passages of the source. Non-standard residues stand in square brackets, D forms with d. Residues, ends and D or L forms follow the SMILES beside them. No end group written: not given here. Aib = CC(C)(N)C(=O)O

How the values were obtained:
[1] = target: T1, LCAT (purified from human plasma) (Homo sapiens, UniProt P04180); assay: LCAT activation assay; assay type: biochemical
T1 construct: from tissue; host or cells: human plasma
T1 sequence (P04180 25-440): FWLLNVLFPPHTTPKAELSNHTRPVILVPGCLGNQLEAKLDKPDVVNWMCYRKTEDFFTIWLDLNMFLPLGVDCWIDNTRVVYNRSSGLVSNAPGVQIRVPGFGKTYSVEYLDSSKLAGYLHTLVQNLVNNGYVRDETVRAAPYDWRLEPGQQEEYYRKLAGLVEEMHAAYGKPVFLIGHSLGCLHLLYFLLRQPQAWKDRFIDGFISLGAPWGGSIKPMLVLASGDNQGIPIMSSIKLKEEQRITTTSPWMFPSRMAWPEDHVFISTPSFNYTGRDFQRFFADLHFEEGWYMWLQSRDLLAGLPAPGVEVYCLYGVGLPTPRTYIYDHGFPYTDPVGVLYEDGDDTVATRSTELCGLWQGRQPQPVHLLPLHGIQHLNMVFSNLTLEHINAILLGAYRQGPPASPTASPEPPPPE
In short: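 Activity was expressed as percentage conversion of radiolabelled cholesterol to cholesteryl ester, normalised to native ApoA-I as 100%. LCAT purified from human plasma was added to peptide-preincubated EPC or POPC/cholesterol (20:1) small unilamellar vesicles at pH 7.4. Specific activity is the peptide concentration reaching the conversion plateau at a fixed timepoint.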

[2] = Circular dichroism helicity determination; assay type: physicochemical; details: for He (%) TFE: 5 μM peptide, 90% vol TFE; for He (%) TFE / He (%) SUVs: 37° C.; for He (%) free: unbound peptide 5 μM in 5 mM phosphate buffer, pH 7.4, 37° C.; for He (%) SUVs: peptide-SUV complexes (20:1 EPC:Chol., Ri=30 and Ri=50)
In short: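 Far-UV CD (190–260 nm) at 37° C on 5 μM peptide in 5 mM phosphate pH 7.4, free, with EPC:Chol 20:1 SUVs (Ri 30 or 50), lysophosphatidylcholine micelles (Ri 100) or 90% TFE. Spectra converted to molar ellipticity per residue; helicity from 222 nm ellipticity or CONTIN fitting to reference spectra, ±5%.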

[3] = LCAT activation as compared with native human ApoA-I (= 100%), equivalent masses
[4] = percent helicity, peptide-micelle complexes, Ri=100, 37° C.

Row | Compound | ACTIVITY (%) LCAT [1, 3] [%] | He (%) TFE ([2]; percent helicity) [%] | He (%) free ([2]; percent helicity) [%] | He (%) mics [2, 4] [%] | He (%) SUVs ([2]; percent helicity) [%] | ACTIVITY (%) LCAT [1] [%] | He (%) mics [2] [%]
1 | PVLDLFRELWNELLEALKQKLK [peptide 15] | 60 | 68 | 55 | 60 | 64 |  | 
2 | CC(C)C[C@H](NC(=O)[C@H](C)NC(=O)[C@H](CCC(=O)O)NC(=O)[C@H](CC(C)C)NC(=O)[C@H](CC(C)C)NC(=O)[C@H](CCC(=O)O)NC(=O)[C@H](CC(N)=O)NC(=O)[C@H](CC(C)C)NC(=O)[C@H](CC(C)C)NC(=O)[C@H](CCC(=O)O)NC(=O)[C@H](CCCNC(=N)N)NC(=O)[C@H](Cc1ccccc1)NC(=O)[C@H](CC(C)C)NC(=O)[C@H](CC(=O)O)NC(=O)[C@H](CC(C)C)NC(=O)[C@@H](NC(=O)[C@@H]1CCCN1S(=O)(=O)c1cccc2c(N(C)C)cccc12)C(C)C)C(=O)N[C@@H](CCCCN)C(=O)N[C@@H](CCC(N)=O)C(=O)N[C@@H](CCCCN)C(=O)N[C@@H](CC(C)C)C(=O)N[C@@H](CCCCN)C(=O)O [compound 30] |  | 90 | 85 |  | 98 | 38 | 90

Continued, in another order:

Row | ACTIVITY (%) LCAT [1, 3] [%] | He (%) TFE ([2]; percent helicity) [%] | He (%) free ([2]; percent helicity) [%] | He (%) mics [2, 4] [%] | He (%) SUVs ([2]; percent helicity) [%] | Compound | ACTIVITY (%) LCAT [1] [%] | He (%) mics [2] [%]
3 | 0 | 54 | 28 | 55 |  | CC(C)C[C@H](NC(=O)[C@H](C)NC(=O)[C@H](CCC(=O)O)NC(=O)[C@H](CC(C)C)NC(=O)C(C)(C)NC(=O)[C@H](CCC(=O)O)NC(=O)[C@H](CC(N)=O)NC(=O)[C@H](CC(C)C)NC(=O)[C@H](CC(C)C)NC(=O)[C@H](Cc1c[nH]c2ccccc12)NC(=O)[C@H](CCCNC(=N)N)NC(=O)[C@H](Cc1ccccc1)NC(=O)[C@H](CC(C)C)NC(=O)[C@H](CC(=O)O)NC(=O)[C@H](CC(C)C)NC(=O)[C@@H](NC(=O)[C@@H]1CCCN1)C(C)C)C(=O)N[C@@H](CCCCN)C(=O)N[C@@H](CCC(N)=O)C(=O)N[C@@H](CCCCN)C(=O)N[C@@H](CC(C)C)C(=O)N[C@@H](CCCCN)C(=O)O [compound 108, PVLDLFRWLLNEXLEALKQKLK] (H-PVLDLFRWLLNE[Aib]LEALKQKLK-OH) |  | 
4 | 16 |  | 15 | 85 | 43 | CC(C)C[C@H](NC(=O)[C@H](C)NC(=O)[C@H](CCC(=O)O)NC(=O)[C@H](CC(C)C)NC(=O)C(C)(C)NC(=O)[C@H](CCC(=O)O)NC(=O)[C@H](CC(N)=O)NC(=O)[C@H](CC(C)C)NC(=O)[C@H](CCCCN)NC(=O)[C@H](CCC(=O)O)NC(=O)[C@H](CCCNC(=N)N)NC(=O)[C@H](Cc1c[nH]c2ccccc12)NC(=O)[C@H](CCC(=O)O)NC(=O)[C@H](CC(=O)O)NC(=O)[C@H](CC(C)C)NC(=O)[C@@H](NC(=O)[C@@H]1CCCN1)C(C)C)C(=O)N[C@@H](CCCCN)C(=O)N[C@@H](CCC(N)=O)C(=O)N[C@@H](CCCCN)C(=O)N[C@@H](CC(C)C)C(=O)N[C@@H](CCCCN)C(=O)O [compound 62, PVLDEWREKLNEXLEALKQKLK] (H-PVLDEWREKLNE[Aib]LEALKQKLK-OH) |  | 
5 | 25 | 76 | 15 | 74 | 27 | CC(C)C[C@H](NC(=O)[C@H](C)NC(=O)[C@H](CCC(=O)O)NC(=O)[C@H](Cc1c[nH]c2ccccc12)NC(=O)C(C)(C)NC(=O)[C@H](CCC(=O)O)NC(=O)[C@H](CC(N)=O)NC(=O)[C@H](CC(C)C)NC(=O)[C@H](CCCCN)NC(=O)[C@H](CCC(=O)O)NC(=O)[C@H](CCCNC(=N)N)NC(=O)[C@H](Cc1ccccc1)NC(=O)[C@H](CCC(=O)O)NC(=O)[C@H](CC(=O)O)NC(=O)[C@H](CC(C)C)NC(=O)[C@@H](NC(=O)[C@@H]1CCCN1)C(C)C)C(=O)N[C@@H](CCCCN)C(=O)N[C@@H](CCC(N)=O)C(=O)N[C@@H](CCCCN)C(=O)N[C@@H](CC(C)C)C(=O)N[C@@H](CCCCN)C(=O)O [compound 42, PVLDEFREKLNEXWEALKQKLK] (H-PVLDEFREKLNE[Aib]WEALKQKLK-OH) |  | 
6 | 47 | 62 | 54 | 71 | 67 | PVLDLFRELLNELLQKLK [compound 209] |  | 
